In the NIST ThermoML archive (doi:10.1021/je049610v):

What was measured:
[1] = refractive index (Na D-line) (dimensionless); xn = mol fraction of the nth substance listed; conditions: 101 kPa, Liquid
[2] = xn = mol fraction of the nth substance listed; conditions: 101 kPa, Liquid

COc1ccccc1 [anisole] + C[S+](C)[O-]
Conditions	mass density, 298.15 K [kg/m3]	mass density, 303.15 K [kg/m3]	mass density, 308.15 K [kg/m3]	refractive index, 298.15 K	refractive index, 303.15 K	refractive index, 308.15 K	speed of sound, 298.15 K [m/s]	viscosity, 298.15 K [mPa·s]	viscosity, 303.15 K [mPa·s]	viscosity, 308.15 K [mPa·s]
[1], x1 = 0.0938	–	–	–	1.4817	1.4772	1.4727	–	–	–	–
[1], x1 = 0.2016	–	–	–	1.4878	1.4853	1.4828	–	–	–	–
[1], x1 = 0.3025	–	–	–	1.4929	1.4901	1.4873	–	–	–	–
[1], x1 = 0.3987	–	–	–	1.4962	1.4935	1.4906	–	–	–	–
[1], x1 = 0.5074	–	–	–	1.4996	1.4974	1.4952	–	–	–	–
[1], x1 = 0.594	–	–	–	1.5031	1.5006	1.498	–	–	–	–
[1], x1 = 0.6956	–	–	–	1.5069	1.5043	1.5017	–	–	–	–
[1], x1 = 0.7988	–	–	–	1.5105	1.5075	1.5046	–	–	–	–
[1], x1 = 0.8933	–	–	–	1.5124	1.5096	1.5069	–	–	–	–
[1], x1 = 1	–	–	–	1.5148	1.5124	1.5092	–	–	–	–
[2], x1 = 0.0938	1081.5	1077	1072.3	–	–	–	1487	1.836	1.683	1.529
[2], x1 = 0.2016	1066.7	1062.1	1057.6	–	–	–	1477	1.691	1.549	1.407
[2], x1 = 0.3025	1054.4	1049.9	1045.3	–	–	–	1468	1.565	1.438	1.31
[2], x1 = 0.3987	1043.6	1039.2	1034.7	–	–	–	1462	1.466	1.347	1.228
[2], x1 = 0.5074	1032.5	1027.9	1023.6	–	–	–	1454	1.369	1.268	1.166
[2], x1 = 0.594	1024.1	1019.7	1015.1	–	–	–	1445	1.318	1.219	1.119
[2], x1 = 0.6956	1014.7	1010.3	1005.7	–	–	–	1437	1.249	1.152	1.054
[2], x1 = 0.7988	1005.5	1001.4	996.7	–	–	–	1428	1.157	1.073	0.989
[2], x1 = 0.8933	997.4	992.8	988.5	–	–	–	1421	1.077	1.004	0.931
[2], x1 = 1	988.9	984.1	979.4	–	–	–	1410	0.992	0.919	0.853

C[S+](C)[O-] [dimethyl sulfoxide] + COc1ccccc1
x2 = 0
Conditions	mass density, 298.15 K [kg/m3]	mass density, 303.15 K [kg/m3]	mass density, 308.15 K [kg/m3]	refractive index, 298.15 K	refractive index, 303.15 K	refractive index, 308.15 K	speed of sound, 298.15 K [m/s]	viscosity, 298.15 K [mPa·s]	viscosity, 303.15 K [mPa·s]	viscosity, 308.15 K [mPa·s]
[1]	–	–	–	1.4768	1.4594	1.4547	–	–	–	–
[2]	1095.4	1090.8	1086.2	–	–	–	1493	1.984	1.801	1.651

COc1ccccc1 [anisole] + CCOC(=O)C(=O)OCC
x1 = 1
Conditions	mass density, 298.15 K [kg/m3]	mass density, 303.15 K [kg/m3]	mass density, 308.15 K [kg/m3]	refractive index, 298.15 K	refractive index, 303.15 K	refractive index, 308.15 K	speed of sound, 298.15 K [m/s]	viscosity, 298.15 K [mPa·s]	viscosity, 303.15 K [mPa·s]	viscosity, 308.15 K [mPa·s]
[1]	–	–	–	1.5148	1.5124	1.5092	–	–	–	–
[2]	988.9	984.1	979.4	–	–	–	1410	0.992	0.918	0.853

ClC(Cl)C(Cl)Cl [1,1,2,2-tetrachloroethane] + COc1ccccc1
Conditions	mass density, 298.15 K [kg/m3]	mass density, 303.15 K [kg/m3]	mass density, 308.15 K [kg/m3]	refractive index, 298.15 K	refractive index, 303.15 K	refractive index, 308.15 K	speed of sound, 298.15 K [m/s]	viscosity, 298.15 K [mPa·s]	viscosity, 303.15 K [mPa·s]	viscosity, 308.15 K [mPa·s]
[1], x2 = 0	–	–	–	1.4922	1.4894	1.4865	–	–	–	–
[1], x2 = 0.1003	–	–	–	1.4943	1.4915	1.4887	–	–	–	–
[1], x2 = 0.2021	–	–	–	1.4966	1.4937	1.4909	–	–	–	–
[1], x2 = 0.303	–	–	–	1.4989	1.496	1.4931	–	–	–	–
[1], x2 = 0.3939	–	–	–	1.5009	1.498	1.4952	–	–	–	–
[1], x2 = 0.4986	–	–	–	1.5032	1.5005	1.4977	–	–	–	–
[1], x2 = 0.5975	–	–	–	1.5055	1.5028	1.5	–	–	–	–
[1], x2 = 0.6972	–	–	–	1.508	1.5052	1.5023	–	–	–	–
[1], x2 = 0.7983	–	–	–	1.5105	1.5076	1.505	–	–	–	–
[1], x2 = 0.9012	–	–	–	1.5129	1.51	1.5072	–	–	–	–
[2], x2 = 0	1587.8	1580.6	1573.3	–	–	–	1153	1.591	1.471	1.361
[2], x2 = 0.1003	1526.3	1519.4	1512.6	–	–	–	1172	1.555	1.439	1.323
[2], x2 = 0.2021	1464.3	1457.7	1451.2	–	–	–	1193	1.518	1.404	1.29
[2], x2 = 0.303	1403.1	1396.9	1390.6	–	–	–	1214	1.47	1.362	1.253
[2], x2 = 0.3939	1348.3	1342.2	1336.2	–	–	–	1235	1.419	1.315	1.21
[2], x2 = 0.4986	1285.5	1279.9	1274	–	–	–	1262	1.355	1.255	1.155
[2], x2 = 0.5975	1226.5	1221.1	1215.6	–	–	–	1289	1.292	1.196	1.1
[2], x2 = 0.6972	1167.2	1162.1	1156.9	–	–	–	1317	1.224	1.131	1.038
[2], x2 = 0.7983	1107.6	1102.7	1097.7	–	–	–	1347	1.149	1.064	0.979
[2], x2 = 0.9012	1047	1042.8	1037.4	–	–	–	1379	1.074	0.994	0.914

C1COCCO1 [1,4-dioxane] + COc1ccccc1
x2 = 0
Conditions	mass density, 298.15 K [kg/m3]	mass density, 303.15 K [kg/m3]	mass density, 308.15 K [kg/m3]	refractive index, 298.15 K	refractive index, 303.15 K	refractive index, 308.15 K	speed of sound, 298.15 K [m/s]	viscosity, 298.15 K [mPa·s]	viscosity, 303.15 K [mPa·s]	viscosity, 308.15 K [mPa·s]
[1]	–	–	–	1.4181	1.4176	1.4141	–	–	–	–
[2]	1028.3	1023.1	1017.8	–	–	–	1345	1.415	1.171	1.068
